Test results published in ChEMBL document CHEMBL5608216, “Discovery of a novel Xanthone derivative P24 for anti-AD via targeting sTGFBR3” (Eur J Med Chem, 2024).
The source made the active and inactive calls. The calls are words filed in the database; no cut-off is given here.

Experiments:
[1] = Permeability of compound measured after 18 hrs by UV spectrophotometer based PAMPA; format: ADME
[2] = tested on: BV-2; test: Antiinflammatory activity in LPS-induced mouse BV-2 cells assessed as inhibition of NO production incubated for 24 hrs by Griess reagent based analysis; format: functional, cell-based; details: BV-2, 24 h
[3] = Cytotoxicity against LPS-induced mouse BV-2 cells assessed as survival rate at 10 uM measured after 24 hrs by MTT assay relative to control; format: toxicity, cell-based; details: LPS-induced BV-2 cells, read-out: Survival
[4] = target: T1, Transforming growth factor beta receptor type 3 (Mus musculus) (UniProt O88393); test: Binding affinity to sTGFBR3 in APP/PS1/tau mouse brain extract-induced mouse BV-2 cells at 37 to 77 degreeC measured after 3 hrs by CETSA; format: cell-based
T1 sequence (whole entry): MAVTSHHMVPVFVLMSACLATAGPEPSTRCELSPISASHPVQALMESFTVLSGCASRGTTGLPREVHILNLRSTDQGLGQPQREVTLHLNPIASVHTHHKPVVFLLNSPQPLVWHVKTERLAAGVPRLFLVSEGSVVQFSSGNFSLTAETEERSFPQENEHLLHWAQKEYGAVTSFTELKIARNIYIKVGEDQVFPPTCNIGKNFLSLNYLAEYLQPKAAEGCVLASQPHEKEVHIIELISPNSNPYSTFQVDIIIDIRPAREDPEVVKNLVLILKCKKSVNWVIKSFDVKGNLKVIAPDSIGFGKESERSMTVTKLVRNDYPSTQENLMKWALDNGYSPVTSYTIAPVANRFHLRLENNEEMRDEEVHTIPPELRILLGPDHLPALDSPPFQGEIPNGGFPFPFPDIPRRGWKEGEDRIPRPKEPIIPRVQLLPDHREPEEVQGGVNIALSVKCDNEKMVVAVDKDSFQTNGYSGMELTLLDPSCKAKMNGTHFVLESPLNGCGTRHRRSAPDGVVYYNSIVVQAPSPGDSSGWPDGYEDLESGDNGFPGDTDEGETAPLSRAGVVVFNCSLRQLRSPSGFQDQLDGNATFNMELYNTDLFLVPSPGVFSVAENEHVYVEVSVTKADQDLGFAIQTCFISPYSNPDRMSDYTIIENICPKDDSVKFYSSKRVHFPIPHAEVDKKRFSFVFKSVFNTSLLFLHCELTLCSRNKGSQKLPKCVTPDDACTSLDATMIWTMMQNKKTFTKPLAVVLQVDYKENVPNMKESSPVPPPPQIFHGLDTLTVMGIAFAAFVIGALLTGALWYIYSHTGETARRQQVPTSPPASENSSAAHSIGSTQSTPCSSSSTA

[5] = tested on: BV-2; test: Activation of TGF-beta pathway in APP/PS1/tau mouse brain extract-induced mouse BV-2 cells assessed as increase in phosphorylated SMAD2/3 protein level by immunoblot analysis; format: cell-based; details: filed as activator
[6] = tested on: BV-2; test: Inhibition of NF-kappaB activation in APP/PS1/tau triple transgenic mouse brain extract-induced mouse BV-2 cells assessed as inhibition of phosphorylated p65 protein expression by immunoblot analysis; format: cell-based; details: dose 1.25-10 µM
[7] = AUC (0 to t) in Sprague-Dawley rat at 50 mg/kg, po administered as single dose and measured upto 48 hrs; format: ADME, organism-based; details: in vivo
[8] = tested on: BV-2; test: Inhibition of NF-kappaB activation in APP/PS1/tau triple transgenic mouse brain extract-induced mouse BV-2 cells assessed as inhibition of phosphorylated IKBalpha protein expression by immunoblot analysis; format: cell-based; details: dose 1.25-10 µM
[9] = tested on: BV-2; test: Enhancement of amyloid beta phagocytosis in APP/PS1/tau triple transgenic mouse brain extract-induced mouse BV-2 cells assessed as increase in fluorescence intensity pretreated for 1 hr followed by brain extract treatment and measured after 24 hrs by Thioflavin T staining based assay; format: functional, cell-based; details: dose 1.25-10 µM, time 25.0 hrs
[10] = tested on: BV-2; test: Antiinflammatory activity in APP/PS1/tau triple transgenic mouse brain extract-induced mouse BV-2 cells assessed as reduction in TNFalpha expression by immunoblot analysis; format: functional, cell-based; details: dose 1.25-10 µM
[11] = Elimination half life in Sprague-Dawley rat at 50 mg/kg, po administered as single dose and measured upto 48 hrs; format: ADME, organism-based; details: in vivo, read-out: beta t1/2 (converted)
[12] = tested on: BV-2; test: Antiinflammatory activity in APP/PS1/tau triple transgenic mouse brain extract-induced mouse BV-2 cells assessed as reduction in CD86 expression by immunoblot analysis; format: functional, cell-based; details: dose 1.25-10 µM
[13] = MRT (0 to infinity) in Sprague-Dawley rat at 50 mg/kg, po administered as single dose and measured upto 48 hrs; format: ADME, organism-based; details: in vivo
[14] = Tmax in Sprague-Dawley rat at 50 mg/kg, po administered as single dose and measured upto 48 hrs; format: ADME, organism-based; details: in vivo
[15] = tested on: BV-2; test: Antiinflammatory activity in APP/PS1/tau triple transgenic mouse brain extract-induced mouse BV-2 cells assessed as reduction in IL-1beta expression by immunoblot analysis; format: functional, cell-based; details: dose 1.25-10 µM
[16] = tested on: BV-2; test: Antiinflammatory activity in APP/PS1/tau triple transgenic mouse brain extract-induced mouse BV-2 cells assessed as increase in IL-10 expression by immunoblot analysis; format: functional, cell-based; details: dose 1.25-10 µM
[17] = tested on: BV-2; test: Inhibition of NF-kappaB activation in APP/PS1/tau triple transgenic mouse brain extract-induced mouse BV-2 cells assessed as reduction in IKK complex formation by immunoblot analysis; format: cell-based; details: dose 1.25-10 µM
[18] = tested on: BV-2; test: Antiinflammatory activity in APP/PS1/tau triple transgenic mouse brain extract-induced mouse BV-2 cells assessed as increase in CD206 expression by immunoblot analysis; format: functional, cell-based; details: dose 1.25-10 µM
[19] = Toxicity in C57BL/6 mouse assessed as mortality at 2000 mg/kg, po measured after 3 to 24 hrs; format: organism-based; details: in vivo, time 3-24 hrs
[20] = tested on: BV-2; test: Antiinflammatory activity in APP/PS1/tau triple transgenic mouse brain extract-induced mouse BV-2 cells assessed as increase in IL-4 expression by immunoblot analysis; format: functional, cell-based; details: dose 1.25-10 µM
[21] = Cmax in Sprague-Dawley rat at 50 mg/kg, po administered as single dose and measured upto 48 hrs; format: ADME, organism-based; details: in vivo
[22] = tested on: BV-2; test: Activation of TGF-beta pathway in APP/PS1/tau triple transgenic mouse brain extract-induced mouse BV-2 cells assessed as increase in phosphorylated SMAD2/3 protein expression by immunoblot analysis; format: cell-based; details: filed as activator, dose 1.25-10 µM

| Compound | IC50 [2] [nM] | viability at 24 h, 10 µM [3] [%] | other results |
| --- | --- | --- | --- |
| C[C@]12CCC(=O)C=C1CC[C@@H]1[C@@H]2CC[C@]2(C)C(=O)CC[C@@H]12 [ANDROSTENEDIONE] | – | – | permeability [1]: 87.28% |
| O=C(COc1ccc2c(=O)c3ccccc3oc2c1)NCc1cccnc1 | 16000 | 75.4 | – |
| O=C(COc1ccc2c(=O)c3ccccc3oc2c1)Nc1ccccn1 | > 30000 | 87.4 | – |
| CN1CCN(c2ccc(NC(=O)COc3ccc4c(=O)c5ccccc5oc4c3)nc2)CC1 | 1190 | 86 | – |
| O=c1c2ccccc2oc2ccccc12 [XANTHONE] | 21200 | 95.4 | – |
| O=C(COc1ccc2c(=O)c3ccccc3oc2c1)NCc1ccc(Cl)c(Cl)c1 | 2890 | 54.6 | – |
| CN1CCN(C(=O)COc2ccc3c(=O)c4ccccc4oc3c2)CC1 | 2250 | 91.6 | – |
| O=C(COc1ccc2c(=O)c3ccccc3oc2c1)Nc1cccnc1 | 1920 | 91.9 | – |
| O=C(COc1ccc2c(=O)c3ccccc3oc2c1)NC[C@@H](O)c1ccccc1 | 12500 | 100 | – |
| O=C(COc1ccc2c(=O)c3ccccc3oc2c1)NCCc1ccc(Cl)c(Cl)c1 | 3280 | 41.1 | – |
| O=C(COc1ccc2c(=O)c3ccccc3oc2c1)N1CCNCC1 | 2150 | 101 | Activity [4]: inactive; Activity [5]: Active |
| COc1ccc(CCNC(=O)COc2ccc3c(=O)c4ccccc4oc3c2)cc1 | 860 | 54.4 | – |
| O=C(COc1ccc2c(=O)c3ccccc3oc2c1)N1CCOCC1 | 2490 | 108 | Activity ([4]; filed as antagonist): Active; Activity [5]: Active |
| O=C(COc1ccc2c(=O)c3ccccc3oc2c1)NCc1ccccn1 | 2430 | 69.1 | – |
| O=C(COc1ccc2c(=O)c3ccccc3oc2c1)NC1CCOCC1 | 3900 | 80.6 | – |
| CCn1cc(C(=O)O)c(=O)c2cc(F)c(N3CCNCC3)nc21 [ENOXACIN] | – | – | permeability [1]: 43.26% |
| O=C(COc1ccc2c(=O)c3ccccc3oc2c1)NCC1CCOCC1 | 520 | 105 | Activity ([4]; filed as antagonist): Active; inhibition [6]: Dose-Dependent Effect; AUCt [7]: 4738.426 ng·h/mL; permeability [1]: 79.33%; inhibition [8]: Dose-Dependent Effect; Activity [9]: Dose-Dependent Effect; Activity [10]: Dose-Dependent Effect; half-life [11]: 10.3 h; Activity [5]: Active; Activity [12]: Dose-Dependent Effect; MRT inf [13]: 14.5 h; Tmax [14]: 12 h; Activity [15]: Dose-Dependent Effect; Activity [16]: Dose-Dependent Effect; inhibition [17]: Dose-Dependent Effect; Activity [18]: Dose-Dependent Effect; Activity [19]: Non-Toxic; Activity [20]: Dose-Dependent Effect; Cmax [21]: 304 ng/mL; Activity [22]: Dose-Dependent Effect |
| O=C(COc1ccc2c(=O)c3ccccc3oc2c1)NCc1ccc(Cl)cc1 | 1230 | 40.4 | – |
| O=C(COc1ccc2c(=O)c3ccccc3oc2c1)NCc1cccc(F)c1 | > 30000 | 97.2 | – |
| O=C(COc1ccc2c(=O)c3ccccc3oc2c1)NCc1ccncc1 | 6380 | 102 | – |
| Cc1ccc(CCNC(=O)COc2ccc3c(=O)c4ccccc4oc3c2)cc1 | 3420 | 47.9 | – |
| O=C(COc1ccc2c(=O)c3ccccc3oc2c1)NCCc1ccc(Cl)cc1 | 1530 | 38.5 | – |
| O=C(COc1ccc2c(=O)c3ccccc3oc2c1)NCc1ccccc1F | 1720 | 84.6 | – |
| O=C(COc1ccc2c(=O)c3ccccc3oc2c1)NCc1ccccc1 | 2410 | 79 | – |
| O=C(COc1ccc2c(=O)c3ccccc3oc2c1)NCCc1ccccc1 | 2570 | 96.4 | – |
| CCC(NC(=O)COc1ccc2c(=O)c3ccccc3oc2c1)c1ccccn1 (stereo not given) | 5430 | 98.5 | – |
| O=C(COc1ccc2c(=O)c3ccccc3oc2c1)Nc1ccncc1 | 2790 | 108 | – |
| O=C(COc1ccc2c(=O)c3ccccc3oc2c1)NCc1ccc(F)cc1 | 2020 | 82.8 | – |
| O=C(COc1ccc2c(=O)c3ccccc3oc2c1)N(Cc1ccccc1)Cc1ccccc1 | 6380 | 99.7 | – |
